# According to US4379160A, “Carbazole compounds and medicinal use thereof” (priority 1978, dated 1983):
# Where a name gives a salt, the structure may show the parent alone. Read-outs that look alike come from different tables or passages of the source.
# What was measured:
# Mouse [1] = conditions: in vivo; for Loss of Righting Reflex ED min.: ip
# [2] = tested on: anti-cholinergic activity; assay: anti-cholinergic activity; conditions: in words
# muricidal behaviour = assay: inhibition of instinctive muricidal (mouse killing) behaviour; format: in vivo, rat; conditions: rats
# [3] = tested on: apomorphine-induced aggression; assay: antagonism of apomorphine-induced aggression (antiaggressive activity); conditions: for ED50: Rattus norvegicus
# [4] = tested on: locomotor activity of d-amphetamine; assay: potentiation of locomotor activity of d-amphetamine; format: in vivo; conditions: in words
# anti-histamine activity = assay: anti-histamine activity; conditions: in words
# [5] = side-effects such as sedation, catalepsy and extrapyramidal dysfunction; format: in vivo; conditions: in words
# [6] = tested on: apomorphine induced stereotyped behaviour; assay: apomorphine induced stereotyped behaviour; format: in vivo; conditions: rat; in words
# Mouse [7] = assay: anticonvulsant activity, Maximal Electroshock Test (MES); format: in vivo; conditions: for ED50: ip, Mouse, Maximal Electroshock Test
# Text: | ^(a) Maximal Electroshock Test (Woodbury and Davenport, Arch. Int. | Pharmacodyn. Ther., 92, 97-107 (1952).
# [8] = acute lethality (LD50) in male mice; conditions: mouse, in vivo
# Rat = conditions: in vivo; for Muscle Tone Decrease ED min.: ip
# [9] = acute oral lethality (LD50) in rat; conditions: in vivo, p.o.
# [10] = antagonism of apomorphine-induced aggression (antiaggressive activity); conditions: rat, in vivo, po
# [11] = po, read-out: Antiaggressive ED50
smiles,measurement,setting,value
"C[C@@H]1CN(CCCn2c3ccccc3c3ccccc32)C[C@H](C)N1 [Carbazole, 9-[3-(3,5-cis-dimethylpiperazino)propyl]carbazole]",minimum dose for loss of righting reflex relative to compound B,Mouse [1],about three times that of compound B
same,anti-cholinergic activity relative to phenothiazines,[2],significantly less
same,suppression of instinctive muricidal (mouse killing) behaviour,muricidal behaviour; in words,suppress the instinctive muricidal (i.e. mouse killing) behaviour
same,"potency of anti-aggressive and anti-psychotic properties relative to non-methylated, 4-methyl, 3,4,5-trimethyl and 3,5-trans-dimethyl compounds",[3]; comparison in words,"more potent than either the corresponding non-methylated compound or any of the analogous 4-methyl, 3,4,5-trimethyl or 3,5-trans-dimethyl compounds"
same,antagonism of apomorphine-induced aggression,"[3]; rat, in words",antagonised apomorphine-induced aggression
same,potentiation of the locomotor activity of d-amphetamine,[4],potentiates the locomotor activity of d-amphetamine
same,anti-histamine activity relative to phenothiazines,anti-histamine activity,significantly less
same,"undesirable side-effects such as sedation, catalepsy and extrapyramidal dysfunction",[5],substantially free from undesirable side-effects
same,antagonism of apomorphine induced stereotyped behaviour,[6],failure to antagonise apomorphine induced stereotyped behaviour
same,"anticonvulsant activity of the ""Carbazole"" relative to cpd. B",Mouse [7]; in words,less than half the anticonvulsant activity of cpd. B
"C[C@@H]1CN(CCCn2c3ccccc3c3ccccc32)C[C@H](C)N1 [Example 1, 9-[3-(3,5-cis-Dimethylpiperazino)propyl]carbazole dihydrochloride hemihydrate]",Loss of Righting Reflex ED min.,Mouse [1],160 mg/kg
same,LD50,"[8]; intravenous, read-out: LD50 intravenous",31 mg/kg
same,LD50,"[8]; oral, read-out: LD50 oral",977 mg/kg
same,Muscle Tone Decrease ED min.,Rat,125 mg/kg
same,LD50,[9],957 mg/kg
same,ED50,"muricidal behaviour; Rattus norvegicus, ip, intraperitoneal, read-out: ED50 (anti-muricidal)",15 mg/kg
same,selectivity ratio,[10],20
same,ED50,"[3]; ip, read-out: ED50 (anti-aggressive)",12.5 mg/kg
same,ED50,[3]; [11],48 mg/kg
same,ED50,Mouse [7],43 mg/kg
O=C1NC(=O)C(c2ccccc2)(c2ccccc2)N1 [Phenytoin],Loss of Righting Reflex ED min.,Mouse [1],> 100 mg/kg
same,ED50,Mouse [7],8.5 mg/kg
same,"anticonvulsant activity relative to the ""Carbazole"" (cpd. A)",Mouse [7]; phenytoin vs cpd. A,5 times
same,anticonvulsant activity relative to cpd. B,Mouse [7]; phenytoin vs cpd. B,~2.5 times
"CN1CCN(CCCn2c3ccccc3c3ccccc32)CC1 [compound B, 9-[3-(4-methylpiperazino)propyl]carbazole, reference compound]",Loss of Righting Reflex ED min.,Mouse [1],50 mg/kg
same,"dose at which muscle tone decrease is observed relative to the ""Carbazole""",Rat,much lower dose
same,Muscle Tone Decrease ED min.,Rat,50 mg/kg
same,LD50,[9],830 mg/kg
same,selectivity ratio,[10],11
same,ED50,[3]; [11],75 mg/kg
same,level of anticonvulsant activity,Mouse [7]; assessment in words,marginal
same,ED50,Mouse [7],20 mg/kg
